According to patent US20220354811A1, “METHODS AND COMPOSITIONS FOR MODULATING MACROPHAGES POLARIZATION” (INSERM (INSTITUT NATIONAL DE LA SANTÉ ET DE LA RECHERCHE …, priority 2019, published 2022):

Assays:
[1] = several recent studies (Frenette 2019; Barreyro 2015; Baskin-Bey 2007); cited from earlier work
[2] = tested on: CSF-1-derived human macrophages; assay: IL-4-induced M2 polarization of CSF-1-derived macrophages (flow cytometry CD200R/CD206, CD200R/CD163); type: cell-based
Protocol: FIG. 6. […] Human monocytes were differentiated during 7 days with 100 ng/mL CSF-1. […] The results are expressed as MFI and represent the mean of 3 independent experiments performed in duplicate. **P<0.01 according to a paired student t test (B) Macrophage polarization was evaluated by 3-color flow cytometric analysis. The percentage indicates cells that express both CD206/CD200R or CD163/CD200R. The results represent the mean±SD of 3 independent experiments performed in duplicate. **P<0.01, ***P<0.001 according to a paired student t test. Human monocytes were differentiated during 5 days with 100 ng/mL CSF-1 and then polarized into M2-macrophages (IL-4) for 2 days. […] The results are expressed as percentage of CD200R/CD206 or CD200R/CD163 double positive cells and represent the mean±SD of 3 independent experiments performed in duplicate.
To analyze the macrophagic differentiation of monocytes, the cells were washed with ice-cold phosphate buffered saline (PBS, Life Technologies, 14190169), incubated at 4° C. for 10 min in PBS/bovine serum albumin (BSA 0.5%, Dutscher, 871002) with anti-CD16, anti-CD71 and anti-CD163 or isotype controls (Miltenyi and BD Biosciences, catalog numbers were 130-113-396, 130-097-628 and 551374). Finally, the cells were washed and fixed in 2% paraformaldehyde (EMS, 15710). To perform macrophage polarization, purified monocytes were plated at 0.3×10^6 per mL in RPMI 1640 medium with glutamax-I supplemented with 10% (vol/vol) fetal bovine serum plus CSF-1 for 5+2 days to differentiate into M0 macrophages. 20 ng/mL IL-4 (Miltenyi, 130-094-117) was added after 5 days of differentiation for two days to polarize into M2-macrophages. […] Fluorescence was measured with a MACSQuant® Analyzer (Miltenyi, Paris, France). […] Fluorescence was measured with a MACSQuant® Analyzer (Miltenyi, Paris, France). […] Fluorescence, that indicate the internalization of particles, was measured with a MACSQuant® Analyzers (Miltenyi, France). Trypan blue solution was used to quench the fluorescence from particles that were not internalized. […]

[3] = tested on: IL4-polarized macrophages; assay: mRNA expression in IL-4-polarized macrophages (RNAseq, qPCR); type: cell-based, human
Protocol: Human monocytes were differentiated during 5 days with 50 ng/mL CSF-1 and then polarized into MO-macrophages (CSF-1) or M2-macrophages (IL-4) for 24 (mRNA) or 48 hours. […] The expression of the indicated mRNA is analyzed by qPCR (mean ±SEM of 6 independent experiments). *P<0.05, **P<0.01 according to a paired student t test (versus M2-macrophages).
The RNA integrity (RNA Integrity Score≥7.0) was checked on the Agilent 2100 Bioanalyzer (Agilent) and quantity was determined using Qubit (Invitrogen). SureSelect Automated Strand Specific RNA Library Preparation Kit was used according to manufacturer's instructions with the Bravo Platform. Briefly, 50 to 200 ng of total RNA sample was used for poly-A mRNA selection using oligo(dT) beads and subjected to thermal mRNA fragmentation. The fragmented mRNA samples were subjected to cDNA synthesis and were further converted into double stranded DNA using the reagents supplied in the kit, and the resulting dsDNA was used for library preparation. The final libraries were bar-coded, purified, pooled together in equal concentrations and subjected to paired-end sequencing on Novaseq-6000 sequencer (Illumina) at Gustave Roussy.
Quantification. Quality of raw FastQ files was assessed with Fastqc v0.11.8 and Fastq-screen v0.13.0. Quality report was gathered with MultiQC v1.8. Abundance estimation was performed with Salmon v0.14.1 using following parameters: —libType A —validateMappings —numBootstraps 60. Salmon index was created using Human Gencode reference annotation release 33 and using following parameters —gencode —keepDuplicates. Differential analysis. Statistical analysis was performed using R 3.6.1. Transcript expression levels were aggregated in gene expression levels using tximport v1.14.0 Bioconductor package. At this step only protein coding genes were considered. We also decided to keep only high quality annotations therefore genes annotated as “automated annotation” in GENCODE were discarded. DESeq2 v1.26.0 method was used to identify differentially expressed genes between groups with an adjusted p-value threshold of 0.05.
RNA was prepared from 5×10^6 cells using the RNeasy Mini Kit according to manufacturer's protocol (Qiagen, 74104). Each cDNA sample was prepared using AMV RT and random primers (Promega, M510F and C1181). Real-time polymerase chain reaction (PCR) was performed using the SyBR Green detection protocol (Life Technologies, 4367659). Briefly, 5 ng of total cDNA, 500 nM (each) primers, and 5 μL SyBR Green mixture were used in a total volume of 10 μL. Detection of multiple endogenous controls (ACTB, L32 and UBIQUITIN) were used to normalize the results. Specific forward and reverse primers are accessible upon request.

human primary monocytes = conditions: literature (Jacquel et al., Blood 2009, Sci Reports 2018); cited from earlier work
[4] = qPCR, Emricasan 3 μM added 16h before polarization

SMILES	liver functions in patients suffering liver diseases [1]	M1-like markers ([2]; 5 days CSF-1 then IL-4 2 days)	M2-like polarization of M0 macrophages induced by IL4 ([2]; 5 days CSF-1 then IL-4 2 days)	generation of CD200R+/CD206+ and CD200R+/CD163+ double-positive cells ([2]; IL4-polarized macrophages, Emricasan added 16 h before IL-4)	IL-4 induction of anti-inflammatory and repression of pro-inflammatory markers (RNAseq) ([3]; macrophages from three different donors)	IL-4-increased CCL18 mRNA expression [3, 4]	IL-4-increased CD200R mRNA expression [3, 4]	CXCL8 mRNA level ([3]; qPCR, IL-4 combined with Emricasan 3 μM)	effect on CSF-1-induced monocyte differentiation (human primary monocytes)
C[C@H](NC(=O)C(=O)Nc1ccccc1C(C)(C)C)C(=O)N[C@@H](CC(=O)O)C(=O)COc1c(F)c(F)cc(F)c1F [Emricasan, (S)-3-((S)-2-(2-((2-(tert-Butyl)phenyl)amino)-2-oxoacetamido)propanamido)-4-oxo-5-(2,3,5,6-tetrafluorophenoxy)pentanoic acid]	improve liver functions	induced M1-like markers	dampened	inhibited	counteracted	counteracted	counteracted	upregulated	
CC(C)[C@H](NC(=O)c1ccc2ccccc2n1)C(=O)N[C@@H](CC(=O)O)C(=O)COc1c(F)cccc1F [Q-VD-OPh]									inhibits
